Measurements from patent US20100267561A1, “HERBICIDAL PYRIDAZINONE DERIVATIVES” (priority 2007, published 2010).

Columns and labels:
Experiment in all cases: Test B pre-/postemergence plant response
Assay type in all cases: in vivo
[1] = system: Russian thistle (Salsola iberica); settings: Preemergence
How it was run: (§1)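 Preemergence and postemergence (plants 2-18 cm, 1- to 4-leaf stage) applications used test chemicals in a non-phytotoxic solvent with surfactant. Plants were held in a greenhouse 13 to 15 days, then rated visually against controls on a 0-100 scale (0 no effect, 100 complete control).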

[2] = system: blackgrass (Alopecurus myosuroides); settings: for Blackgrass plant response rating: 8 g ai/ha
How it was run: as §1

[3] = system: catchweed bedstraw (Galium aparine); settings: Preemergence
How it was run: as §1

[4] = system: cocklebur (Xanthium strumarium); settings: for Cocklebur plant response rating: 8 g ai/ha
How it was run: as §1

[5] = system: common ragweed (Ambrosia elation); settings: for Ragweed plant response rating: 8 g ai/ha
How it was run: as §1

[6] = system: corn (Zea mays); settings: for Corn plant response rating: 8 g ai/ha
How it was run: as §1

[7] = system: goosegrass (Eleusine indica); settings: for Goosegrass plant response rating: 8 g ai/ha
How it was run: as §1

[8] = system: johnsongrass (Sorghum halepense); settings: for Johnsongrass plant response rating: 8 g ai/ha
How it was run: as §1

[9] = system: kochia (Kochia scoparia); settings: for Kochia plant response rating: 8 g ai/ha
How it was run: as §1

[10] = system: large crabgrass (Digitaria sanguinalis); settings: for Crabgrass, Large plant response rating: 8 g ai/ha
How it was run: as §1

[11] = system: velvetleaf (Abutilon theophrasti); settings: for Velvetleaf plant response rating: 8 g ai/ha
How it was run: as §1

[12] = system: wild oat (Avena fatua); settings: for Oat, Wild plant response rating: 8 g ai/ha
How it was run: as §1

[13] = system: woolly cupgrass (Eriochloa villosa); settings: for Cupgrass, Woolly plant response rating: 8 g ai/ha
How it was run: as §1

[14] = system: yellow nutsedge (Cyperus esculentus); settings: for Nutsedge, Yellow plant response rating: 8 g ai/ha
How it was run: as §1

[15] = 16 g ai/ha, scale 0 to 100 (0 no effect, 100 complete control)
[16] = Postemergence, 16 g ai/ha, scale 0 to 100
[17] = Postemergence, 31 g ai/ha, scale 0 to 100
[18] = Postemergence, 62 g ai/ha, scale 0 to 100, 0 no effect, 100 complete control
[19] = Preemergence, 16 g ai/ha, scale 0 to 100 (0 no effect, 100 complete control)
[20] = Preemergence, 31 g ai/ha, 0 to 100 scale, 0 no effect, 100 complete control
[21] = Preemergence, 62 g ai/ha, scale 0 to 100
[22] = Preemergence, 31 g ai/ha, scale 0 to 100 (0 no effect, 100 complete control)

Cc1cc(-c2ccc(Cl)cc2)nn1-c1c(OC(=O)c2ccccc2)cnn(C)c1=O [Compound 48]
Plant response rating, Russian Thistle [1, 15]: 0
Plant response rating, Russian Thistle ([1]; 31 g ai/ha, scale 0 to 100 (0 no effect, 100 complete control)): 0
Plant response rating, Russian Thistle ([1]; 62 g ai/ha, scale 0 to 100): 0
Russian Thistle plant response rating ([1]; 8 g ai/ha, scale 0 to 100): 0
Blackgrass plant response rating ([2]; postemergence, 0-100 scale): 40
Plant response rating, Blackgrass [2, 16]: 85
Plant response rating, Blackgrass [2, 17]: 85
Plant response rating, Blackgrass [2, 18]: 95
Plant response rating, Blackgrass [2, 19]: 90
Plant response rating, Blackgrass [2, 20]: 90
Plant response rating, Blackgrass [2, 21]: 100
Blackgrass plant response rating ([2]; Preemergence, scale 0 to 100): 80
Plant response rating, Galium [3, 15]: 0
Plant response rating, Galium ([3]; 31 g ai/ha, 0 to 100 scale, 0 no effect, 100 complete control): 0
Cocklebur plant response rating ([4]; postemergence, 0-100 scale): 0
Plant response rating, Cocklebur [4, 16]: 0
Plant response rating, Cocklebur [4, 17]: 0
Plant response rating, Cocklebur [4, 18]: 0
Plant response rating, Cocklebur [4, 19]: 0
Plant response rating, Cocklebur [4, 20]: 0
Plant response rating, Cocklebur [4, 21]: 0
Cocklebur plant response rating ([4]; Preemergence, scale 0 to 100): 0
Ragweed plant response rating ([5]; postemergence, 0-100 scale): 0
Plant response rating, Ragweed [5, 16]: 0
Plant response rating, Ragweed [5, 17]: 0
Plant response rating, Ragweed [5, 18]: 0
Plant response rating, Ragweed [5, 19]: 0
Plant response rating, Ragweed [5, 22]: 0
Plant response rating, Ragweed [5, 21]: 0
Ragweed plant response rating ([5]; Preemergence, scale 0 to 100): 0
Corn plant response rating ([6]; postemergence, 0-100 scale): 90
Plant response rating, Corn [6, 16]: 95
Plant response rating, Corn [6, 17]: 100
Plant response rating, Corn [6, 18]: 100
Plant response rating, Corn [6, 19]: 55
Plant response rating, Corn [6, 20]: 70
Plant response rating, Corn [6, 21]: 75
Corn plant response rating ([6]; Preemergence, scale 0 to 100): 15
Goosegrass plant response rating ([7]; postemergence, 0-100 scale): 15
Plant response rating, Goosegrass [7, 16]: 65
Plant response rating, Goosegrass [7, 17]: 75
Plant response rating, Goosegrass [7, 18]: 95
Plant response rating, Goosegrass [7, 19]: 0
Plant response rating, Goosegrass [7, 20]: 0
Plant response rating, Goosegrass [7, 21]: 20
Goosegrass plant response rating ([7]; Preemergence, scale 0 to 100): 0
Johnsongrass plant response rating ([8]; postemergence, 0-100 scale): 65
Plant response rating, Johnsongrass [8, 16]: 75
Plant response rating, Johnsongrass [8, 17]: 100
Plant response rating, Johnsongrass [8, 18]: 100
Plant response rating, Johnsongrass [8, 19]: 60
Plant response rating, Johnsongrass [8, 20]: 75
Plant response rating, Johnsongrass [8, 21]: 80
Johnsongrass plant response rating ([8]; Preemergence, scale 0 to 100): 40
Kochia plant response rating ([9]; postemergence, 0-100 scale): 0
Plant response rating, Kochia [9, 16]: 0
Plant response rating, Kochia [9, 17]: 0
Plant response rating, Kochia [9, 18]: 0
Plant response rating, Kochia [9, 19]: 0
Plant response rating, Kochia [9, 20]: 0
Plant response rating, Kochia [9, 21]: 0
Kochia plant response rating ([9]; Preemergence, scale 0 to 100): 0
Crabgrass, Large plant response rating ([10]; postemergence, 0-100 scale): 70
Plant response rating, Crabgrass, Large [10, 16]: 85
Plant response rating, Crabgrass, Large [10, 17]: 90
Plant response rating, Crabgrass, Large [10, 18]: 100
Plant response rating, Crabgrass, Large [10, 19]: 0
Plant response rating, Crabgrass, Large [10, 20]: 0
Plant response rating, Crabgrass, Large [10, 21]: 0
Crabgrass, Large plant response rating ([10]; Preemergence, scale 0 to 100): 0
Velvetleaf plant response rating ([11]; postemergence, 0-100 scale): 0
Plant response rating, Velvetleaf [11, 16]: 0
Plant response rating, Velvetleaf [11, 17]: 0
Plant response rating, Velvetleaf [11, 18]: 0
Plant response rating, Velvetleaf [11, 19]: 0
Plant response rating, Velvetleaf [11, 22]: 0
Plant response rating, Velvetleaf ([11]; Preemergence, 62 g ai/ha, 0 to 100 scale, 0 no effect, 100 complete control): 0
Velvetleaf plant response rating ([11]; Preemergence, scale 0 to 100): 0
Oat, Wild plant response rating ([12]; postemergence, 0-100 scale): 80
Plant response rating, Oat, Wild [12, 16]: 95
Plant response rating, Oat, Wild [12, 17]: 98
Plant response rating, Oat, Wild [12, 18]: 100
Plant response rating, Oat, Wild [12, 19]: 5
Plant response rating, Oat, Wild [12, 22]: 80
Plant response rating, Oat, Wild [12, 21]: 85
Oat, Wild plant response rating ([12]; Preemergence, scale 0 to 100): 0
Cupgrass, Woolly plant response rating ([13]; postemergence, 0-100 scale): 75
Plant response rating, Cupgrass, Woolly [13, 16]: 85
Plant response rating, Cupgrass, Woolly [13, 17]: 100
Plant response rating, Cupgrass, Woolly [13, 18]: 100
Plant response rating, Cupgrass, Woolly [13, 19]: 0
Plant response rating, Cupgrass, Woolly [13, 20]: 0
Plant response rating, Cupgrass, Woolly [13, 21]: 0
Cupgrass, Woolly plant response rating ([13]; Preemergence, scale 0 to 100): 0
Nutsedge, Yellow plant response rating ([14]; postemergence, 0-100 scale): 0
Plant response rating, Nutsedge, Yellow [14, 16]: 0
Plant response rating, Nutsedge, Yellow [14, 17]: 0
Plant response rating, Nutsedge, Yellow [14, 18]: 0
Plant response rating, Nutsedge, Yellow [14, 19]: 0
Plant response rating, Nutsedge, Yellow [14, 22]: 0
Plant response rating, Nutsedge, Yellow [14, 21]: 0
Nutsedge, Yellow plant response rating ([14]; Preemergence, scale 0 to 100): 0
